Experimental data: PubChem BioAssay (NCI)
Values joined by “and” are separate entries in the source; they are usually repeats but may differ in a detail not shown here. Identical values can stand only once.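 The compound was tested at five concentrations on cells cultured in 96-well plates, with a 48-hour exposure period. GI50 marks 50% less growth. TGI: total growth inhibition.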

Tests used:
Experiment in all cases: NCI tumour cell line growth inhibition, 48 h
A498 renal = test system: A498 renal
BT-549 breast = test system: BT-549 breast
HCC-2998 colon = test system: HCC-2998 colon
HT29 colon = test system: HT29 colon
MALME-3M melanoma = test system: MALME-3M melanoma
MDA-MB-435 = test system: MDA-MB-435
NCI-H460 lung = test system: NCI-H460 lung
OVCAR-4 ovarian = test system: OVCAR-4 ovarian
OVCAR-5 ovarian = test system: OVCAR-5 ovarian
SF-268 CNS = test system: SF-268 CNS

Compound | GI50 (A498 renal) | TGI (A498 renal) | GI50 (BT-549 breast) [µM] | TGI (BT-549 breast) [µM] | GI50 (HCC-2998 colon) | TGI (HCC-2998 colon) | GI50 (HT29 colon) | TGI (HT29 colon) | GI50 (MALME-3M melanoma) | TGI (MALME-3M melanoma) [µM] | GI50 (MDA-MB-435) | TGI (MDA-MB-435) [µM] | GI50 (NCI-H460 lung) [µM] | TGI (NCI-H460 lung) [µM] | GI50 (OVCAR-4 ovarian) | TGI (OVCAR-4 ovarian) [µM] | GI50 (OVCAR-5 ovarian) | TGI (OVCAR-5 ovarian) | GI50 (SF-268 CNS) [µM] | TGI (SF-268 CNS) [µM]
Cn1cccc1-c1cc(-c2ccc(Br)cc2)nc(N)c1C#N | 91.8 µM | > 100 µM | 69.7 | > 100 | > 100 µM | > 100 µM | > 100 µM | > 100 µM | > 100 µM | > 100 | > 100 µM | > 100 | > 100 | > 100 | 77.2 µM | > 100 | > 100 µM | > 100 µM | > 100 | > 100
O=C(/C=N/O)c1c(-c2ccccc2)[nH]c(-c2ccccc2)c1-c1ccccc1 | – | 62.4 µM | – | 11.3 | – | 58.1 µM | – | 61 µM | – | 32.9 | – | 28.3 | – | 41.8 | – | 42.9 | – | 21.7 µM | – | 49.7
CC1=C(C)C(=O)C(C(C)C2=C(C)C(=O)C(C)=C(C)C2=O)=C(C)C1=O | 25.2 µM | > 100 µM | 45.1 | > 100 | 57.1 µM | > 100 µM | – | – | 44.1 µM | > 100 | 39.4 µM | > 100 | 26.7 | > 100 | – | – | 47 µM | > 100 µM | 18.7 | 49.7
Cc1nc2cc(O)c(O)cc2cc1Oc1ccc(NC(=O)Nc2ccc(Cl)c(Cl)c2)cc1 | > 32.5 µM | > 32.5 µM | 7.5 | > 32.5 | 6.7 µM | 14.6 µM | 11.9 µM | > 32.5 µM | 8.6 µM | 26 | 6.99 µM | > 32.5 | 6.95 | 15.8 | 9.73 µM | > 32.5 | 11.6 µM | 29.3 µM | 8.45 | > 32.5
Cn1c(=O)c(F)c(Nc2ccc(I)cc2F)c2c(=O)n(C[C@@H](O)CO)cnc21 | < 0.01 µM and 0.0103 µM | 0.0305 µM and 0.0752 µM | 12.6 | > 95.8 | < 0.01 µM and 0.0028 µM | 0.0969 µM and 0.57 µM | < 0.01 µM and 0.0029 µM | 19.5 µM and > 3.46 µM | < 0.01 µM and 0.00177 µM | < 0.01 | < 0.01 µM and 0.00642 µM | 41.1 | – | > 100 | 6.33 µM and 1.21 µM | > 100 | < 0.01 µM and 0.0058 µM | 35.3 µM and > 1.97 µM | 10.4 | > 82.5
CCOC(=O)C(=Cc1ccccc1Br)C(=O)OCC | – | 5.07 µM | – | 7.07 | – | 6.54 µM | – | 10.9 µM | – | 8.26 | – | 5.16 | – | > 100 | – | 16.5 | – | 62.5 µM | – | 29.1
CC(C)[C@]12O[C@H]1[C@@H]1O[C@]13[C@]1(O[C@H]1C[C@H]1c4c(C(=O)c5ccccc5)oc(OC(=O)c5ccccc5)c4CC[C@@]13C)[C@@H]2O | 0.0179 µM | 0.0614 µM | 0.0188 | 0.0951 | 0.0378 µM | 0.355 µM | 0.0172 µM | > 38 µM | 0.0189 µM | 0.0498 | 0.0151 µM | 0.0366 | – | 11.4 | 0.0313 µM | > 88.4 | 0.0401 µM | > 100 µM | 0.0338 | 1.6
NS(=O)(=O)c1ccc(-n2nc(-c3ccc(Cl)cc3)cc2C2=CC(=O)C=CC2=O)cc1 | 22.8 µM | 70.2 µM | 22.5 | 70.8 | 18.3 µM | 33 µM | – | – | – | – | 22.9 µM | 67.1 | 24.3 | 57.4 | – | – | 19.5 µM | 46.1 µM | 24.6 | 50.4
CNCCNc1nc2ccccc2c2c(=O)c3cccc(OC)c3sc12 | 1.41 µM | 2.97 µM | 1.7 | 3.65 | 1.55 µM | 3.18 µM | 0.652 µM | 2.28 µM | 1.83 µM | 3.59 | 1.67 µM | 3.09 | 1.23 | 2.72 | 1.47 µM | 3.16 | 1.64 µM | 3.27 µM | 1.56 | 3.33
COC(=O)c1ccc2c(c1)nc(-c1ccc(Cl)cc1)n2-c1cc(C(C)(C)C)[nH]n1 | 2.26 µM | 9.76 µM | 3.35 | 11.5 | 3.9 µM | 19.8 µM | 3.65 µM | 15.4 µM | 3.25 µM | 15.6 | 1.19 µM | 5 | 2.95 | 8.81 | 3.4 µM | > 100 | 12.9 µM | 60.1 µM | 3.29 | 17.8
COc1ccc(/C=C(/C(=O)N2CCNCC2)c2cc(OC)c(OC)c(OC)c2)cc1O | 1.22 µM | 7.33 µM | 4.22 | 48.4 | 3.76 µM | > 100 µM | 7.75 µM | > 100 µM | – | – | 0.418 µM | 1.8 | 3.42 | > 100 | 8.15 µM | > 100 | 6.21 µM | > 100 µM | 7.23 | > 100
CCOc1ccc2c(c1)/C(=C\C=C\C1CC(C)C3CC(OCC)CCC3N1CC)CC(C)N2CC (stereo unspecified) | 0.378 µM | 1.83 µM | 0.906 | 2.46 | 1.05 µM | 2.42 µM | 0.521 µM | 1.69 µM | 1.61 µM | 3.42 | 0.905 µM | 2.31 | 0.416 | 1.64 | 0.459 µM | 2 | 1.23 µM | 2.64 µM | 0.882 | 2.41
O=C1c2cc3c(cc2-c2c1c1ccc([N+](=O)[O-])cc1c(=O)n2CCCCl)OCO3 | 0.367 µM | 5.93 µM | 0.308 | 24.5 | 0.489 µM | 5.43 µM | 1.07 µM | > 100 µM | – | – | 1.22 µM | > 100 | 0.0277 | > 100 | 7.34 µM | > 100 | 0.634 µM | > 100 µM | 0.102 | > 100
O=[N+]([O-])c1ccc2[nH]cc(-c3c4ccccc4cc4[nH]c5ccc([N+](=O)[O-])cc5c34)c2c1 | 1.53 µM | 4.25 µM | 2.29 | 5.94 | 2.33 µM | 4.58 µM | 3.62 µM | 11.3 µM | 2.32 µM | 6.77 | 1.8 µM | 4.89 | 2.72 | 7.7 | 1.57 µM | 3.02 | 2.21 µM | 5.94 µM | 2.66 | 9.57
O=C1c2cccnc2-c2nc(-c3ccc([N+](=O)[O-])cc3)cc3c2c1nc1ccccc13 | 24.2 µM | 65.5 µM | 10.4 | 28.6 | 8 µM | 26.5 µM | 11.9 µM | 26.3 µM | 2.15 µM | 6.32 | 1.69 µM | 3.06 | 2.34 | 8.62 | 13.4 µM | 30.7 | 12.5 µM | 27.5 µM | 3.08 | 19.8
O=C1c2cccc3cccc(c23)C(=O)N1CCCCOc1ccc(-c2nc3ccc(N4CCOCC4)cc3[nH]2)cc1 | 3.38 µM | 20.2 µM | 1.49 | 3.15 | 5.25 µM | > 47.8 µM | 2.23 µM | > 35.3 µM | 0.558 µM | 3.21 | 2.04 µM | 4.54 | 3.42 | 16.1 | 1.8 µM | 4.08 | 18.9 µM | 34.9 µM | 7.35 | > 69.6
COc1cc2c(/C=C3\C(=O)Nc4ccc(Br)cc43)c(Cl)n(C)c2cc1C | 0.419 µM | 1.62 µM | 1.49 | 4.77 | 1.66 µM | 4.62 µM | 1.98 µM | 6.83 µM | 2.75 µM | 10 | 0.249 µM | 0.802 | 0.916 | 4.69 | 4.12 µM | 24.8 | 4.11 µM | 15.9 µM | 1.31 | 8
Fc1ccc(Nc2nc(Nc3ccc(-c4nc5ccccc5[nH]4)cc3)nc(N3CCCC3)n2)cc1 | 12.8 µM | 25.7 µM | 6.9 | 20.7 | 2.39 µM | 6.25 µM | 2.54 µM | 5.62 µM | 2.17 µM | 4.81 | 3.38 µM | 11.3 | 2 | 4.2 | 3.65 µM | 14.6 | 2.93 µM | 8.19 µM | 2.67 | 7.99
Cn1c2ccccc2c2c3c(c4c5ccccc5n(CCCCCC#N)c4c21)C(=O)N(O)C3=O | 1.21 µM | 3.56 µM | 2.5 | 88.7 | 2.57 µM | 38.5 µM | 1.65 µM | 3.36 µM | 2.22 µM | 7.05 | 0.788 µM | 9.59 | 0.377 | 2.34 | 1.91 µM | 9.33 | 2.43 µM | 8.04 µM | 0.624 | > 100
Cc1ccc(Cl)cc1Nc1nc(C(F)(F)F)ccc1C(=O)Oc1ccc(Cl)cc1 | 11.9 µM | 33.2 µM | 15.6 | 36.3 | 8.86 µM | 29.4 µM | 13.3 µM | > 100 µM | – | – | 16.8 µM | 51.9 | 16.4 | 54.2 | 11.1 µM | 44.3 | 10.5 µM | 27.5 µM | 14 | 38.7
C=C1C(=O)O[C@H]2[C@H]1CC/C(COC(=O)CCC(=O)OC/C1=C/CC[C@@]3(C)O[C@H]3[C@H]3OC(=O)C(=C)[C@@H]3CC1)=C\CC[C@@]1(C)O[C@@H]21 | 10.5 µM | 23.6 µM | 1.4 | 2.83 | 2.13 µM | 4.4 µM | 1.46 µM | 3.03 µM | 1.14 µM | 2.88 | 1.84 µM | 4.65 | 4.48 | 17.2 | 2.07 µM | 5.9 | 2.13 µM | 6.03 µM | 3.18 | 14
COC(=O)c1oc2c(C(=O)/C=C/c3ccc(OC)cc3)c(OCCCN3CCCCC3)ccc2c1C | 1.44 µM | 4.54 µM | 2.89 | 9.11 | – | – | 1.49 µM | 3.22 µM | 1.51 µM | 3.3 | 1.67 µM | 3.68 | 1.54 | 3.18 | 2.49 µM | 9.15 | 2.31 µM | 6.17 µM | 2.24 | 4.69
CC1=C(C(=O)Nc2ccc(F)c(Cl)c2)C(c2cccc(Cl)c2)NC(=O)N1 (stereo unspecified) | 1.39 µM | 15.5 µM | 19 | 42 | 18.3 µM | 32.5 µM | 14.8 µM | 30.1 µM | – | – | 17.9 µM | 38 | 16.4 | 34 | – | – | 23 µM | 45.7 µM | 17.2 | 39.4
Oc1ccc2ccccc2c1/C=N\Nc1ccccn1 | 1.25 µM | 7.03 µM | 3.84 | > 54.9 | 4.13 µM | > 100 µM | 39.1 µM | > 100 µM | – | – | 0.752 µM | > 100 | 0.336 | 1.75 | 1.24 µM | > 100 | 4.25 µM | > 100 µM | 0.436 | > 100
NCCOc1ccccn1 | – | > 100 µM | – | > 100 | – | – | – | > 100 µM | – | > 100 | – | > 100 | – | > 100 | – | > 100 | – | > 100 µM | – | > 100
COc1ccc2c(CNCCCCO)cc3cc4c(cc3c2c1)OCO4 | 1.16 µM | 2.98 µM | 3.83 | 11.9 | 1.66 µM | 6.57 µM | 1.29 µM | 6.87 µM | 1.65 µM | 4.08 | 0.982 µM | 3.54 | – | – | 2.31 µM | 7.54 | 2.72 µM | 8.95 µM | 0.151 | 1.15
